Here are results for seven molecules from patent US20030170245A1, “Activation of matriptase and diagnostic and therapeutic methods based thereon” (priority 2002, published 2003).

In test [1] the test system is A1N4 human mammary epithelial cells. The test can be described thus: Immunofluorescence of actin cytoskeleton rearrangement in A1N4 cells. Type of test: cell-based. How it is done: FIG. 23 Immunofluorescence of actin rearrangement and activated matriptase following LPA and SIP stimulation.
Immunofluorescence: Cells were fixed with 2% paraformaldehyde for 10 min. The two-chain form matriptase was detected with mAb M69 and total matriptase was detected with mAb M32 for 1 hr at room temperature. This was followed by an 1 hr incubation with 1:200 dilution of FITC-conjugated goat anti-mouse (Jackson Immunoresearch, PA). Cells were viewed on a Zeiss microscope, and photographed with Kodak film.

Test [2] deals with matriptase. Nature of the test: Induction of matriptase activation in A1N4 mammary epithelial cells (immunoblot of two-chain form with mAb M69). The test is classed as cell-based, human. The settings on record: for induction of matriptase activation (two-chain form): A1N4 cells, qualitative; for concentration at which maximal activation of matriptase was achieved: intact A1N4 cells. The protocol:
FIG. 22 LPA and S1P induce the activation of matriptase.
(§1) Immunoblotting analysis: Immunobloting was conducted as previously described. Proteins were separated by 10% SDS-PAGE, transferred overnight to nitrocellulose sheets (Schleicher & Schuell, Keene, N.H.) or polyvinylidene fluoride (PVDF) and subsequently probed with mAb, as indicated. Immuno-reactive polypeptides were visualized using peroxidase-labeled anti-rat immunoglobulin and the ECL detection system (NEN, Boston, Mass.).
Induction of matriptase activation in A1N4 mammary epithelial cells: To serum starve 184 A1N4 cells, the cells were plated at 50-60% confluence, and maintained for 48-72 hrs in medium containing 0.5% serum. The activation of matriptase was then induced by incubating the cells with Iscove's Modified Dulbecco's Medium (IMEM), containing serum, as indicated in the Figure legend. Cells were then scrapped in PBS, and pelleted by centrifigation with a 5 min spin (1500×g). The cell pellets were lysed on ice for 20 min in lysis buffer (1% TritonX-100 in phosphate buffered saline). Cellular debris were removed by centrifugation for 10 min at 14,000×g. Equal protein amounts, as determined by the BCA protein micro assay (Pierce), were resolved under non-reducing, non-boiled conditions, by sodium dodecyl sulfate-polyacrylamide gel electrophoresis (SDS-PAGE), and electroblotted onto PVDF membranes (Millipore).
For orientation: In western blotting, separated proteins are transferred to a membrane and probed.

Test [3] has as its system mRNA levels for matriptase or HAI-1. The test can be described thus: mRNA levels in estrogen-depleted MCF-7 cells after hormone treatment. The settings on record: data not shown. The test is classed as cell-based, human. How it is done:
Northern blotting—Total RNA was extracted from cell lines with RNAzol reagent (Tel-Test, Inc., Friendswood, Tex.) according to the manufacturer's instructions. Ten micrograms of total RNA from each cell line was resolved by electrophoresis on a 1.2% phosphate-buffered agarose gel containing 2M formaldehyde. RNA was subsequently transferred to hybond-N nylon membranes (Amersham Pharmacia Biotech, Buckinghamshire, England) and hybridized to ^32P-labeled riboprobes at 65° C. for 36 hours, followed by three washes in 0.1×SSC/0.1%SDS at 80° C. for 30 minutes each to remove unbound probe. To generate the labeled riboprobes, the coding sequences of Matriptase and HAI-1 were cloned into the pcDNA3.1 vector (Invitrogen, San Diego, Calif.), and were linearized with an appropriate restriction enzyme just 5′ of the coding sequences. These linearized vectors were used in in vitro SP6 RNA polymerase reactions with ^32P-UTP (3000 Ci/mmol, NEN, Boston, Mass.) to generate labeled antisense riboprobes. To control for approximately equal loading of RNA from each cell line, labeled riboprobes directed against the message of the ribosomal protein 36B4 were generated in a similar fashion, except that a vector containing approximately 500 bp of the coding sequence was used. […]

Test [4] has as its target T1, matriptase (Homo sapiens, UniProt Q9Y5Y6).
T1 construct: separated into two groups of polypeptides with apparent sizes of 45-kDa (A chain) and 25-kDa (B chain); from tissue; host or cells: human milk
T1 sequence (Q9Y5Y6 190-614 limits assumed): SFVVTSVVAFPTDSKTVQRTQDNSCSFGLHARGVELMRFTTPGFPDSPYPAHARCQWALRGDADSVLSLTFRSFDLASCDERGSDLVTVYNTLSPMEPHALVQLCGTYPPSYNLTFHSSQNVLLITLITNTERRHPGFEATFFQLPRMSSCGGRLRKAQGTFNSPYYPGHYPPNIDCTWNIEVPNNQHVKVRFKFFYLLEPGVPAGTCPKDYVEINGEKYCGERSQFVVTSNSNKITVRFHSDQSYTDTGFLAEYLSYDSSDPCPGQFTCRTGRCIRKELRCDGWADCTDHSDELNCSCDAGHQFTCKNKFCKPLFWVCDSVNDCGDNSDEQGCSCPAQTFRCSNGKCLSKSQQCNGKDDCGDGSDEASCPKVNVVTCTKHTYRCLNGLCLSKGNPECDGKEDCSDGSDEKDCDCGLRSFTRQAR
T1 sequence (Q9Y5Y6 615-854 limits assumed): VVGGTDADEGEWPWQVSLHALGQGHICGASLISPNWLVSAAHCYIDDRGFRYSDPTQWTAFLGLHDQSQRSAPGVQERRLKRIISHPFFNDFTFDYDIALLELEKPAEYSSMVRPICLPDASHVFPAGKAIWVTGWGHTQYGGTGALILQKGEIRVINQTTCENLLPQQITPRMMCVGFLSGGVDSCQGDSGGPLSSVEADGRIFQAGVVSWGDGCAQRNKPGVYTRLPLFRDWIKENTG
The test can be described thus: Proteolytic activity assay (cleavage rate of fluorescent substrate BOC-Gln-Ala-Arg-AMC). The test is classed as biochemical. To be noted: pH 8.0, 37° C. The protocol: (§2) FIG. 11 Inhibition of matriptase by HAI-1. Matriptase and HAI-1 were isolated from human milk by anti-matriptase mAb 21-9 immunoaffinity chromatography, as described previously, and were maintained in an uncomplexed status in elution buffer, 0.1 M glycine, pH 2.4.
[…] Louis), as a substrate. The rate of cleavage was determined with a fluorescence spectrophotometer (Hitachi, F-4500).

For test [5], the target named is T1, matriptase. Nature of the test: Gelatin zymography of matriptase and matriptase/HAI-1 complex. The test is classed as biochemical. To be noted: 1 mg/ml gelatin zymogram.
Excerpt: as §2

Test [6] deals with T1, matriptase. Nature of the test: Binding of HAI-1 to matriptase (95-kDa complex formation, immunoblot with mAb 21-9). The protocol:
as §2, §1

lysophosphatidic acid [LPA]: the “actin cytoskeleton rearrangement (stress-fiber formation)” value in test [1] is on record as “induced actin cytoskelaton reorganization”. For the same molecule, in the test with matriptase [2], the “induction of matriptase activation (two-chain form)” value (from here on “induction of matriptase activation”) is “could mimic serum and LDL induced activation of matriptase”; the “concentration at which maximal activation of matriptase was achieved” value (“concentration” for short) was found to be 1 µg/mL.

In the case of Ceramide1-P, the “induction of matriptase activation” value in the test on matriptase [2] is “induced the activation of matriptase although at higher concentration than S1P”.

Regarding `CCCCCCCCCCCCC/C=C/[C@@H](O)[C@@H](N)COP(=O)(O)O` [S1P, shingosine 1-phosphate], the “actin cytoskeleton rearrangement (stress-fiber formation)” value in test [1] was “induced actin cytoskelaton reorganization”. Besides, in the test on matriptase [2], the “induction of matriptase activation” value was “could mimic serum and LDL induced activation of matriptase”; the “concentration” value came to 0.001 µg/mL. For the same molecule, the “potency in inducing the activation of matriptase relative to LPA” value in the test with matriptase [2] (S1P versus LPA) came to 100 fold. For the same molecule, in the test on matriptase [2] (after S1P addition), the “time at which activation of matriptase started after addition” value was not above 5 min and the “time to maximal activation of matriptase” value is given as not above 10 min. Also, in the test on matriptase [2] (molar value in brackets), the “concentration” value was found to be 2.6 nM.

Turning to `C=C1[C@@H](C)[C@H]2[C@H](Cc3ccccc3)NC(=O)[C@]23[C@H](OC(C)=O)/C=C/[C@@](C)(O)C(=O)[C@@H](C)C/C=C/[C@H]3[C@@H]1O` [cytochalasin D], the “block of S1P-induced activation of matriptase” value in the test on matriptase [2] (pretreatment of cells before S1P) is reported as “failed to block the activation of matriptase by S1P”.

For the molecule `C[C@]12CC[C@@H]3c4ccc(O)cc4CC[C@H]3[C@@H]1CC[C@@H]2O` [17β-estradiol], the “change in mRNA levels for matriptase or HAI-1” value in test [3] (100 nM 17β-estradiol) is given as “no change”.

For `CC(=O)[C@H]1CC[C@H]2[C@@H]3CCC4=CC(=O)CC[C@]4(C)[C@H]3CC[C@]12C` [progesterone], in test [3] (100 nM 17β-estradiol plus 100 nM progesterone), the “change in mRNA levels for matriptase or HAI-1” value is listed as “no change”.

B1: HAI-1: type-1, integral membrane, Kunitz-type serine protease inhibitor, cognate inhibitor of matriptase (protein, UniProt O43278 36-529, looked up)
Kunitz-type protease …: GPPPAPPGLPAGADCLNSFTAGVPGFVLDTNASVSNGATFLESPTVRRGWDCVRACCTTQNCNLALVELQPDRGEDAIAACFLINCLYEQNFVCKFAPREGFINYLTREVYRSYRQLRTQGFGGSGIPKAWAGIDLKVQPQEPLVLKDVENTDWRLLRGDTDVRVERKDPNQVELWGLKEGTYLFQLTVTSSDHPEDTANVTVTVLSTKQTEDYCLASNKVGRCRGSFPRWYYDPTEQICKSFVYGGCLGNKNNYLREEECILACRGVQGGPLRGSSGAQATFPQGPSMERRHPVCSGTCQPTQFRCSNGCCIDSFLECDDTPNCPDASDEAACEKYTSGFDELQRIHFPSDKGHCVDLPDTGLCKESIPRWYYNPFSEHCARFTYGGCYGNKNNFEEEQQCLESCRGISKKDVFGLRREIPIPSTGSVEMAVAVFLVICIVVVVAILGYCFFKNQRKDFHGHHHHPPPTPASSTVSTTEDTEHLVYNHTTRPL
B1: the “rate of cleavage of synthetic fluorescent substrate by matriptase after HAI-1 binding” value in the test with matriptase [4] is “drastically decreased”. In the test with matriptase [5], the “gelatinolytic activity of the 95-kDa matriptase/HAI-1 complex” value is given as “only trace amounts of gelatinolytic activity”. Moreover, in the test with matriptase [6] (pH 8.0, 37° C.), the “incubation time after which uncomplexed matriptase was undetectable by immunoblot” value worked out at 30 min. Moreover, in the test with matriptase [6] (pH raised to 8.0, 37° C.), the “formation of 95-kDa matriptase/HAI-1 complex” value is reported as “rapidly occurred”.
